Our source for the Ki values is patent publication US8461328B2, “Tricyclic heterocyclic compounds, compositions and methods of use thereof” (Genentech, Inc., priority 2010, dated 2013).

Holding throughout (format): biochemical
Test [1] has as its target T1, JAK1 (Homo sapiens, UniProt P23458).
T1 construct: made in house; host or cells: SF9 insect cells (baculovirus)
The test can be described thus: JAK1 inhibition (Table 4). The settings on record: read-out: JAK1 Ki.

Test [2] has as its target T2, JAK2 (Homo sapiens, UniProt O60674).
T2 construct: made in house; host or cells: SF9 insect cells (baculovirus)
The experiment in a line: JAK2 inhibition (Table 4). The settings on record: read-out: JAK2 Ki.

Test [3] concerns the target T3, JAK3 (Homo sapiens, UniProt P52333).
T3 construct: made in house; host or cells: SF9 insect cells (baculovirus)
The experiment in a line: JAK3 inhibition (Table 4). The settings on record: read-out: JAK3 Ki.

In test [4] the target is T4, TYK2 (Homo sapiens, UniProt P29597).
T4 construct: made in house; host or cells: SF9 insect cells (baculovirus)
T4 sequence (P29597 873-1187): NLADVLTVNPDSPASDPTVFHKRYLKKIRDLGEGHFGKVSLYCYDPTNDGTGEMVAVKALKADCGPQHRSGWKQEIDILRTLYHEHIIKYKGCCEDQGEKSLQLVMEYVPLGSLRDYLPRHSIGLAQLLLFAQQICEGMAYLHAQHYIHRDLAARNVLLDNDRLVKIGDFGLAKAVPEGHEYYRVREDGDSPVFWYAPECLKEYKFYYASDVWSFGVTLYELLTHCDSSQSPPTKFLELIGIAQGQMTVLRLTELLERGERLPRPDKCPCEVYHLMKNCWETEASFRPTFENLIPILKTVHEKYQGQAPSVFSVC
The test can be described thus: TYK2 inhibition (Table 4).

T1 sequence (P23458 852-1154): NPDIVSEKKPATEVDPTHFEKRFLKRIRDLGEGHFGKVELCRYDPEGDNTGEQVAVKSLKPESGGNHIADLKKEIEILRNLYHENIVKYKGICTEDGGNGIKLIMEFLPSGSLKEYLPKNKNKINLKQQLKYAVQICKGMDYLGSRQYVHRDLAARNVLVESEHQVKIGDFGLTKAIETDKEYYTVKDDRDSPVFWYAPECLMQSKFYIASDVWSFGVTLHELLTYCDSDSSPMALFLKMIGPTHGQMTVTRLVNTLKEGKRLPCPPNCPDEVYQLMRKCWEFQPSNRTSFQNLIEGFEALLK
T2 sequence (O60674 812-1132): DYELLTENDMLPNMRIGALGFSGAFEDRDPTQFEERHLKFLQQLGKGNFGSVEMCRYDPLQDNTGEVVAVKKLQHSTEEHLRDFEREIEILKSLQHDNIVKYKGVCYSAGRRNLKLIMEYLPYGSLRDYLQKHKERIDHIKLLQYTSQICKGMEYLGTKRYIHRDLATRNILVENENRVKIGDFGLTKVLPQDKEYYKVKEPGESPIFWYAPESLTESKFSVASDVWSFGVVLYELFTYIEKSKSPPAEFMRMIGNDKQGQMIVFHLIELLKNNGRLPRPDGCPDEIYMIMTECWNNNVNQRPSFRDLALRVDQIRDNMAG
T3 sequence (P52333 783-1124): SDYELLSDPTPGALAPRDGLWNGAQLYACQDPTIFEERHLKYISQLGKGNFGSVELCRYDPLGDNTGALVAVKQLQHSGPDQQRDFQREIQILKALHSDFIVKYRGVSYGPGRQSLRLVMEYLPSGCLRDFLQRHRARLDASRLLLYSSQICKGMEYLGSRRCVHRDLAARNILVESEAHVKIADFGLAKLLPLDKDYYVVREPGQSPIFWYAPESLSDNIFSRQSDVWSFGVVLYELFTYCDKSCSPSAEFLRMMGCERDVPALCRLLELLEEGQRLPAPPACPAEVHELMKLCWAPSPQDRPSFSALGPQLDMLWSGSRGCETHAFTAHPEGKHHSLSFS

In general, Ki refers to a dissociation constant, usually derived from enzyme kinetics or from competition with a known ligand. As for `FC(F)(F)c1cccc(CN2CCC(n3cnc4cnc5[nH]ccc5c43)CC2)n1` [Example 314, 1-[1-(6Trifluoromethyl-pyridin-2-ylmethyl)-piperidin-4-yl]-1,6-dihydro-1,3,5,6-tetraaza-as-indacene], the inhibition constant (Ki) in test [1] was 4.46 nM; in test [2], 7.44 nM; in test [3], 36.2 nM; in test [4], 124 nM.
On the same counts, the results for `O=C(C1CCC1)N1CCC[C@@H](n2cnc3cnc4[nH]ccc4c32)C1` [Example 315, Cyclobutyl-[(R)-3-(6H-1,3,5,6-tetraaza-as-indacen-1-yl)-piperidin1-yl]-methanone] are 5.7 nM, 6.28 nM, 41.3 nM and 29.2 nM.
Consider `N#CC1(C(=O)N2CCC[C@@H](n3cnc4cnc5[nH]ccc5c43)C2)CCC1` [Example 316, 1-[(R)-3-(6H-1,3,5,6-Tetraaza-as-indacen-1-yl)-piperidine-carbonyl]-cyclobutanecarbonitrile], for which the inhibition constant Ki in test [1] came to 2.77 nM; in test [2], 3.2 nM; in test [3] it was 9.24 nM; in test [4], 17.7 nM.
On the same counts, the results for `CC(C)(C)OC(=O)NC1CC(n2cnc3cnc4[nH]ccc4c32)C1` (stereo not shown) [Example 317, [3-(6H-1,3,5,6-Tetraaza-as-indacen-1-yl)-cyclobutyl]-carbamic acid tert-butyl ester] are 2.9 nM, 5.78 nM, 37.4 nM and 94.6 nM.
On the same counts, the results for `NC1CC(n2cnc3cnc4[nH]ccc4c32)C1` (stereo not shown) [Example 320, 3-(6H-1,3,5,6-Tetraaza-as-indacen-1-yl)-cyclobutylamine] are 56 nM, 181 nM, 1160 nM and 608 nM.
For the molecule `c1ccc(CN2CCC(n3c(C4CCC4)nc4cnc5[nH]ccc5c43)CC2)cc1` [Example 325, 1-(1-Benzyl-piperidin-4-yl)-2-cyclobutyl-1,6-dihydro-1,3,5,6-tetraaza-as-indacene], the inhibitory constant (Ki) in test [1] amounted to 5.3 nM; in test [2], 21.6 nM; in test [3] it was 19.5 nM; in test [4], 1360 nM.
On the same counts, the results for `c1cc2c(ncc3nc(C4CCC4)n(C4CCNCC4)c32)[nH]1` [Example 326, 2-Cyclobutyl-1-piperidin-4-yl-1,6-dihydro-1,3,5,6-tetraaza-as-indacene] are 27.6 nM, 938 nM, 552 nM and 2630 nM.
For `N#CCCN1CCC(n2c(C3CCC3)nc3cnc4[nH]ccc4c32)CC1` [Example 327, 3-[4-(2-Cyclobutyl-6H-1,3,5,6-tetraaza-as-indacen-1-yl)-piperidin-1-yl]-propionitrile] the same measures were 4.84 nM, 16.9 nM, 20 nM and 138 nM.
On the same counts, the results for `N#Cc1cccc(CNC2CC(n3cnc4cnc5[nH]ccc5c43)C2)c1` (stereo not shown) [Example 329, 3-{[3-(6H-1,3,5,6-Tetraaza-as-indacen-1-yl)-cyclobutylamino]-methyl}-benzonitrile] are 16.5 nM, 41.6 nM, 173 nM and 230 nM.
As for `N#CCCNC1CC(n2cnc3cnc4[nH]ccc4c32)C1` (stereo not shown) [Example 331, 3-[3-(6H-1,3,5,6-Tetraaza-as-indacen-1-yl)-cyclobutylamino]-propionitrile], the inhibitory constant (Ki) in test [1] is 6.08 nM; in test [2] it was 16 nM; in test [3], 64.4 nM; in test [4], 45.8 nM.
`c1ncc(CN[C@H]2CC[C@@H](n3cnc4cnc5[nH]ccc5c43)CC2)cn1` [Example 333, Pyrimidin-5-ylmethyl-[4-(6H-1,3,5,6-tetraaza-as-indacen-1-yl)-cyclohexyl]-amine]: the Ki in test [1] is 11.7 nM; in test [2] it was 25.3 nM; in test [3], 170 nM; in test [4], 59.1 nM.
On the same counts, the results for `CC(C)(O)c1nc2cnc3[nH]ccc3c2n1C1CCN(CCC#N)CC1` [Example 335, 3-{4-[2-(1-Hydroxy-1-methyl-ethyl)-6H-1,3,5,6-tetraaza-as-indacen-1-yl]-piperidin-1-yl}-propionitrile] are 31.2 nM, 127 nM, 67.6 nM and 944 nM.
Regarding `c1cncc(CN[C@H]2CC[C@H](n3cnc4cnc5[nH]ccc5c43)CC2)c1` [Example 336, Pyridin-3-ylmethyl-[4-(6H-1,3,5,6-tetraaza-as-indacen-1-yl)-cyclohexyl]-amine], the Ki in test [1] is 16 nM; in test [2] it was 63.4 nM; in test [3], 656 nM; in test [4], 77.6 nM.
On the same counts, the results for `N#CCCN1CCC(n2c(C3CC3)nc3cnc4[nH]ccc4c32)CC1` [Example 337, 3-[4-(2-Cyclopropyl-6H-1,3,5,6-tetraaza-as-indacen-1-yl)-piperidin-1-yl]-propionitrile] are 2.9 nM, 5.31 nM, 10.7 nM and 33.7 nM.
On the same counts, the results for `OCCN1CCC(n2cnc3cnc4[nH]ccc4c32)CC1` [Example 338, 2-[4-(6H-1,3,5,6-Tetraaza-as-indacen-1-yl)-piperidin-1-yl]-ethanol] are 21.1 nM, 50.1 nM, 288 nM and 158 nM.
Consider `FC(F)(F)CCN1CCC(n2cnc3cnc4[nH]ccc4c32)CC1` [Example 339, 1-[1-(3,3,3-Trifluoro-propyl)-piperidin-4-yl]-1,6-dihydro-1,3,5,6-tetraaza-as-indacene], for which the inhibitory constant (Ki) was found to be 3.89 nM in test [1], 7.83 nM in test [2], 40.5 nM in test [3] and 22.5 nM in test [4].
For `N#C[C@@H]1C[C@@H]1C(=O)N1CCC[C@@H](n2cnc3cnc4[nH]ccc4c32)C1` [Example 340, (1R,2S)-2-[(R)-3-(6H-1,3,5,6-Tetraaza-as-indacen-1-yl)-piperidine-1-carbonyl]-cyclopropanecarbonitrile] the same measures were 17.2 nM, 19.5 nM, 24.6 nM and 101 nM.
On the same counts, the results for `CN([C@H]1CC[C@H](n2cnc3cnc4[nH]ccc4c32)CC1)S(=O)(=O)C1CC1` [Example 341, Cyclopropanesulfonic acid methyl-[4-(6H-1,3,5,6-tetraaza-as-indacen1-yl)-cyclohexyl]-amide] are 10.2 nM, 7.47 nM, 169 nM and 106 nM.
On the same counts, the results for `CC(C)(O)Cc1nc2cnc3[nH]ccc3c2n1C1CCN(CCC#N)CC1` [Example 346, 3-{4-[2-(2-Hydroxy-2-methyl-propyl)-6H-1,3,5,6-tetraaza-as-indacen-1-yl)-piperidin-1-yl}-propionitrile] are 13.9 nM, 31.5 nM, 51.8 nM and 140 nM.
Regarding `O=C(N[C@H]1CC[C@H](n2cnc3cnc4[nH]ccc4c32)CC1)OC1CCCC1` [Example 347, [4-(6H-1,3,5,6-Tetraaza-as-indacen-1-yl)-cyclohexyl]-carbamic acid cyclopentyl ester], the Ki came to 4.96 nM in test [1], 14.5 nM in test [2], 136 nM in test [3] and 130 nM in test [4].
On the same counts, the results for `CC1(COC(=O)N[C@H]2CC[C@H](n3cnc4cnc5[nH]ccc5c43)CC2)CC1` [Example 348, [4-(6H-1,3,5,6-Tetraaza-as-indacen-1-yl)-cyclohexyl]-carbamic acid 1-methyl-cyclopropylmethyl ester] are 5.6 nM, 15 nM, 78.5 nM and 148 nM.
In the case of `CC(C)(C)OC(=O)N1CCC[C@@H](n2cnc3cnc4[nH]ccc4c32)C1` [Example 349, (R)-3-(6H-1,3,5,6-Tetraaza-as-indacen-1-yl)-piperidine-1-carboxylic acid tert-butyl ester], the inhibition constant Ki in test [1] stood at 15.3 nM; in test [2] it was 19 nM; in test [3], 120 nM; in test [4], 113 nM.
In the case of `COC(=O)N[C@H]1CC[C@H](n2nnc3cnc4[nH]ccc4c32)CC1` [Example 353, [4-(6H-1,2,3,5,6-Pentaaza-as-indacen-1-yl)-cyclohexyl]-carbamic acid methyl ester], the Ki in test [1] amounted to 8.27 nM; in test [2] it was 15 nM; in test [3] it was 216 nM; in test [4], 87.4 nM.
For `Cc1nc2cnc3[nH]ccc3c2n1C1CCN(CC(O)(C(F)(F)F)C(F)(F)F)CC1` [Example 354, 1,1,1,3,3,3-Hexafluoro-2-[4-(2-methyl-6H-1,3,5,6-tetraaza-as-indacen-1-yl)-piperidin-1-ylmethyl]-propan-2-ol] the same measures were 2.5 nM, 5.24 nM, 120 nM and 10.9 nM.
For `COCCOC(=O)N[C@H]1CC[C@H](n2cnc3cnc4[nH]ccc4c32)CC1` [Example 356, [4-(6H-1,3,5,6-Tetraaza-as-indacen-1-yl)-cyclohexyl]-carbamic acid 2-methoxy-ethyl ester] the same measures were 10.6 nM, 28.5 nM, 209 nM and 192 nM.
